# Measured values as given in PubChem BioAssay (NCI).
#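 Interpolation was linear, between the two tested concentrations surrounding the appropriate level; five concentrations were tested over 48 hours in 96-well plates. TGI: concentration producing complete growth inhibition.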 Calls of active or inactive are those of the source. No stated cut-off is given here; in the data, active means GI50 below about 0.43 µM; inactive means the rest.
# Legend:
# Experiment in all cases: growth of human tumour cells (NCI), 48 h
# 786-0 renal = system: 786-0 renal
# A549 NSCLC = system: A549 NSCLC
# ACHN renal = system: ACHN renal
# CAKI-1 renal = system: CAKI-1 renal
# CCRF-CEM leukemia = system: CCRF-CEM leukemia
# DLD-1 colon = system: DLD-1 colon
# DMS 273 small cell lung = system: DMS 273 small cell lung
# EKVX NSCLC = system: EKVX NSCLC
# HCT-116 colon = system: HCT-116 colon
# HCT-15 colon = system: HCT-15 colon
# HL-60(TB) leukemia = system: HL-60(TB) leukemia
# HOP-92 NSCLC = system: HOP-92 NSCLC
# HT29 colon = system: HT29 colon
# IGROV1 ovarian = system: IGROV1 ovarian
# K-562 leukemia = system: K-562 leukemia
# KM12 colon = system: KM12 colon
# KM20L2 colon = system: KM20L2 colon
# LOX IMVI melanoma = system: LOX IMVI melanoma
# LXFL 529 NSCLC = system: LXFL 529 NSCLC
# M14 melanoma = system: M14 melanoma
# M19-MEL melanoma = system: M19-MEL melanoma
# MALME-3M melanoma = system: MALME-3M melanoma
# MOLT-4 leukemia = system: MOLT-4 leukemia
# NCI-H226 lung = system: NCI-H226 lung
# NCI-H23 lung = system: NCI-H23 lung
# NCI-H522 lung = system: NCI-H522 lung
# OVCAR-3 ovarian = system: OVCAR-3 ovarian
# RPMI-8226 leukemia = system: RPMI-8226 leukemia
# RXF-631 renal = system: RXF-631 renal
# SF-268 CNS = system: SF-268 CNS
# SF-295 CNS = system: SF-295 CNS
# SF-539 CNS = system: SF-539 CNS
# SK-MEL-2 melanoma = system: SK-MEL-2 melanoma
# SK-MEL-28 melanoma = system: SK-MEL-28 melanoma
# SK-MEL-5 melanoma = system: SK-MEL-5 melanoma
# SK-OV-3 ovarian = system: SK-OV-3 ovarian
# SN12C renal = system: SN12C renal
# SNB-19 CNS = system: SNB-19 CNS
# SNB-75 CNS = system: SNB-75 CNS
# SNB-78 CNS = system: SNB-78 CNS
# SR leukemia = system: SR leukemia
# SW-620 colon = system: SW-620 colon
# TK-10 renal = system: TK-10 renal
# U251 CNS = system: U251 CNS
# UACC-257 melanoma = system: UACC-257 melanoma
# UACC-62 melanoma = system: UACC-62 melanoma
# UO-31 renal = system: UO-31 renal
# XF 498 CNS = system: XF 498 CNS
# COLO 205 colon = system: COLO 205 colon
# DMS 114 small cell lung = system: DMS 114 small cell lung
# HCC-2998 colon = system: HCC-2998 colon
# HOP-62 NSCLC = system: HOP-62 NSCLC
# NCI-H460 lung = system: NCI-H460 lung
# OVCAR-4 ovarian = system: OVCAR-4 ovarian
# OVCAR-5 ovarian = system: OVCAR-5 ovarian
# OVCAR-8 ovarian = system: OVCAR-8 ovarian
# RXF 393 renal = system: RXF 393 renal
# A498 renal = system: A498 renal
# HOP-18 NSCLC = system: HOP-18 NSCLC
smiles,measurement,setting,value
Cc1ccc(S(=O)(=O)CC(=O)CC(=O)C(=O)Nc2cccc(C(F)(F)F)c2)cc1,TGI,786-0 renal,> 100 µM
same,TGI,A549 NSCLC,> 100 µM
same,TGI,ACHN renal,> 100 µM
same,TGI,CAKI-1 renal,> 100 µM
same,TGI,CCRF-CEM leukemia,> 100 µM
same,TGI,DLD-1 colon,> 100 µM
same,TGI,DMS 273 small cell lung,> 100 µM
same,TGI,EKVX NSCLC,> 100 µM
same,TGI,HCT-116 colon,> 100 µM
same,TGI,HCT-15 colon,> 100 µM
same,TGI,HL-60(TB) leukemia,> 100 µM
same,TGI,HOP-92 NSCLC,> 100 µM
same,TGI,HT29 colon,> 100 µM
same,TGI,IGROV1 ovarian,> 100 µM
same,TGI,K-562 leukemia,> 100 µM
same,TGI,KM12 colon,> 100 µM
same,TGI,KM20L2 colon,> 100 µM
same,TGI,LOX IMVI melanoma,> 100 µM
same,TGI,LXFL 529 NSCLC,> 100 µM
same,TGI,M14 melanoma,> 100 µM
same,TGI,M19-MEL melanoma,> 100 µM
same,TGI,MALME-3M melanoma,> 100 µM
same,TGI,MOLT-4 leukemia,> 100 µM
same,TGI,NCI-H226 lung,> 100 µM
same,TGI,NCI-H23 lung,> 100 µM
same,TGI,NCI-H522 lung,> 100 µM
same,TGI,OVCAR-3 ovarian,> 100 µM
same,TGI,RPMI-8226 leukemia,> 100 µM
same,TGI,RXF-631 renal,> 100 µM
same,TGI,SF-268 CNS,> 100 µM
same,TGI,SF-295 CNS,> 100 µM
same,TGI,SF-539 CNS,> 100 µM
same,TGI,SK-MEL-2 melanoma,> 100 µM
same,TGI,SK-MEL-28 melanoma,> 100 µM
same,TGI,SK-MEL-5 melanoma,> 100 µM
same,TGI,SK-OV-3 ovarian,> 100 µM
same,TGI,SN12C renal,> 100 µM
same,TGI,SNB-19 CNS,> 100 µM
same,TGI,SNB-75 CNS,> 100 µM
same,TGI,SNB-78 CNS,> 100 µM
same,TGI,SR leukemia,> 100 µM
same,TGI,SW-620 colon,> 100 µM
same,TGI,TK-10 renal,> 100 µM
same,TGI,U251 CNS,> 100 µM
same,TGI,UACC-257 melanoma,> 100 µM
same,TGI,UACC-62 melanoma,> 100 µM
same,TGI,UO-31 renal,> 100 µM
same,TGI,XF 498 CNS,> 100 µM
COC(=O)C1(COCc2ccccc2)CCCC2OC21 (stereo not drawn),outcome,786-0 renal,inactive
same,outcome,A549 NSCLC,inactive
same,outcome,ACHN renal,inactive
same,outcome,CAKI-1 renal,inactive
same,outcome,CCRF-CEM leukemia,inactive
same,outcome,COLO 205 colon,inactive
same,outcome,DLD-1 colon,inactive
same,outcome,DMS 114 small cell lung,inactive
same,outcome,DMS 273 small cell lung,inactive
same,outcome,EKVX NSCLC,inactive
same,outcome,HCC-2998 colon,inactive
same,outcome,HCT-116 colon,inactive
same,outcome,HCT-15 colon,inactive
same,outcome,HL-60(TB) leukemia,inactive
same,outcome,HOP-62 NSCLC,inactive
same,outcome,HOP-92 NSCLC,inactive
same,outcome,HT29 colon,inactive
same,outcome,IGROV1 ovarian,inactive
same,outcome,K-562 leukemia,inactive
same,outcome,KM12 colon,inactive
same,outcome,KM20L2 colon,inactive
same,outcome,LOX IMVI melanoma,inactive
same,outcome,LXFL 529 NSCLC,inactive
same,outcome,M14 melanoma,inactive
same,outcome,M19-MEL melanoma,inactive
same,outcome,MALME-3M melanoma,inactive
same,outcome,MOLT-4 leukemia,inactive
same,outcome,NCI-H226 lung,inactive
same,outcome,NCI-H23 lung,inactive
same,outcome,NCI-H460 lung,inactive
same,outcome,NCI-H522 lung,inactive
same,outcome,OVCAR-3 ovarian,inactive
same,outcome,OVCAR-4 ovarian,inactive
same,outcome,OVCAR-5 ovarian,inactive
same,outcome,OVCAR-8 ovarian,inactive
same,outcome,RPMI-8226 leukemia,inactive
same,outcome,RXF 393 renal,inactive
same,outcome,RXF-631 renal,inactive
same,outcome,SF-268 CNS,inactive
same,outcome,SF-295 CNS,inactive
same,outcome,SF-539 CNS,inactive
same,outcome,SK-MEL-2 melanoma,inactive
same,outcome,SK-OV-3 ovarian,inactive
same,outcome,SN12C renal,inactive
same,outcome,SNB-19 CNS,inactive
same,outcome,SNB-75 CNS,inactive
same,outcome,SNB-78 CNS,inactive
same,outcome,SR leukemia,inactive
same,outcome,SW-620 colon,inactive
same,outcome,U251 CNS,inactive
same,outcome,UACC-257 melanoma,inactive
same,outcome,UACC-62 melanoma,inactive
same,outcome,UO-31 renal,inactive
same,outcome,XF 498 CNS,inactive
Cc1nc(N)nc(N)c1CCCCc1ccccc1,TGI,786-0 renal,19 µM
same,TGI,A498 renal,> 100 µM
same,TGI,A549 NSCLC,> 100 µM
same,TGI,ACHN renal,> 100 µM
same,TGI,CAKI-1 renal,> 100 µM
same,TGI,CCRF-CEM leukemia,24.8 µM
same,TGI,COLO 205 colon,21 µM
same,TGI,DLD-1 colon,> 100 µM
same,TGI,DMS 114 small cell lung,24.1 µM
same,TGI,DMS 273 small cell lung,20.5 µM
same,TGI,EKVX NSCLC,> 100 µM
same,TGI,HCC-2998 colon,22.7 µM
same,TGI,HCT-116 colon,> 100 µM
same,TGI,HCT-15 colon,63.3 µM
same,TGI,HL-60(TB) leukemia,20 µM
same,TGI,HOP-18 NSCLC,> 100 µM
same,TGI,HOP-62 NSCLC,56.4 µM
same,TGI,HOP-92 NSCLC,54.6 µM
same,TGI,HT29 colon,16.9 µM
same,TGI,IGROV1 ovarian,> 100 µM
same,TGI,K-562 leukemia,18.1 µM
same,TGI,KM12 colon,> 100 µM
same,TGI,KM20L2 colon,63.3 µM
same,TGI,LOX IMVI melanoma,23.9 µM
same,TGI,LXFL 529 NSCLC,73.8 µM
same,TGI,M14 melanoma,19.7 µM
same,TGI,M19-MEL melanoma,30.6 µM
same,TGI,MALME-3M melanoma,26.5 µM
same,TGI,MOLT-4 leukemia,63.5 µM
same,TGI,NCI-H23 lung,20.6 µM
same,TGI,NCI-H460 lung,81.4 µM
same,TGI,NCI-H522 lung,31.6 µM
same,TGI,OVCAR-3 ovarian,99.4 µM
same,TGI,OVCAR-4 ovarian,> 100 µM
same,TGI,OVCAR-5 ovarian,> 100 µM
same,TGI,OVCAR-8 ovarian,> 100 µM
same,TGI,RPMI-8226 leukemia,45.8 µM
same,TGI,RXF 393 renal,49.8 µM
same,TGI,RXF-631 renal,39.1 µM
same,TGI,SF-268 CNS,45.7 µM
same,TGI,SF-295 CNS,> 100 µM
same,TGI,SF-539 CNS,36 µM
same,TGI,SK-MEL-2 melanoma,40.9 µM
same,TGI,SK-MEL-5 melanoma,17.1 µM
same,TGI,SK-OV-3 ovarian,> 100 µM
same,TGI,SN12C renal,> 100 µM
same,TGI,SNB-19 CNS,> 100 µM
same,TGI,SNB-75 CNS,> 100 µM
same,TGI,SNB-78 CNS,> 100 µM
same,TGI,SR leukemia,38.4 µM
same,TGI,SW-620 colon,> 100 µM
same,TGI,TK-10 renal,88.7 µM
same,TGI,U251 CNS,51.4 µM
same,TGI,UACC-257 melanoma,28.6 µM
same,TGI,UACC-62 melanoma,76.8 µM
same,TGI,UO-31 renal,> 100 µM
